Tests used:
[1] = system: BALB/c splenocytes; experiment: FACS analysis of BALB/c splenocytes after 24 hours with test agents; format: cell-based, mouse; conditions: for CD45+ CD3+ CD4+ / CD45+ CD3+ CD4+ CD25+ / CD45+ CD3+ CD4+ FoxP3+ / CD45+ CD3+ CD4+ FoxP3+, CD25+ / CD45+ CD3+ CD4+ FoxP3+, CD25− / CD45+ CD3+ CD4+ FoxP3− CD25+ / CD45± / Live / CD45+ CD3+: 24 hours
Text: FACS analysis consisted of the following markers: live/dead, CD45, CD3, CD4, CD25 and FOXP3.

[2] = system: breast cancer cell line MCF-7; conditions: cited from earlier work
[3] = system: mouse fibroblasts; conditions: cited from earlier work
[4] = 1 uM, n=5, mean (SD in the line below)

Nc1ccccc1NC(=O)c1ccc(CNC(=O)OCc2cccnc2)cc1 [Entinostat, reference compound]
CD45+ CD3+ CD4+ ([1]; 1 uM, n=5): 38.5% | CD45+ CD3+ CD4+ CD25+ ([1]; 1 uM, n=5): 10.4% | CD45+ CD3+ CD4+ FoxP3+ ([1]; 1 uM, n=5): 10.1% | CD45+ CD3+ CD4+ FoxP3+, CD25+ ([1]; 1 uM, n=5): 5.12% | CD45+ CD3+ CD4+ FoxP3+, CD25− ([1]; 1 uM, n=5): 2.33% | CD45+ CD3+ CD4+ FoxP3− CD25+ ([1]; 1 uM, n=5): 4.57% | CD45± ([1]; 1 uM, n=5): 99.1% | Live [1, 4]: 97.6%

O=C(NO)c1cnc(N2CC3C(C2)C3NCc2ccc3cc(F)ccc3n2)nc1 (stereo not shown) [VRx-3996, 2-(6-{[(6-Fluoroquinolin-2-yl)methyl]amino}-3-azabicyclo[3.1.0]hex-3-yl)-N-hydroxypyrimidine-5-carboxamide]
CD45+ CD3+ ([1]; 1 nM, n=5): 46.9% | CD45+ CD3+ CD4+ ([1]; 1 nM, n=5): 32.4% | CD45+ CD3+ CD4+ CD25+ ([1]; 1 nM, n=5): 7.93% | CD45+ CD3+ CD4+ FoxP3+ ([1]; 1 nM, n=5): 12% | CD45+ CD3+ CD4+ FoxP3+, CD25+ ([1]; 1 nM, n=5): 6.2% | CD45+ CD3+ CD4+ FoxP3+, CD25− ([1]; 1 nM, n=5): 4.47% | CD45+ CD3+ CD4+ FoxP3− CD25+ ([1]; 1 nM, n=5): 1.14% | CD45± ([1]; 1 nM, n=5): 98.6% | Live ([1]; 1 nM, n=5): 98.4% | CD45+ CD3+ ([1]; 100 nM, n=5): 94% | CD45+ CD3+ CD4+ ([1]; 100 nM, n=5): 75.3% | CD45+ CD3+ CD4+ CD25+ ([1]; 100 nM, n=5): 1.89% | CD45+ CD3+ CD4+ FoxP3+ ([1]; 100 nM, n=5): 1.62% | CD45+ CD3+ CD4+ FoxP3+, CD25+ ([1]; 100 nM, n=5): 0.064% | CD45+ CD3+ CD4+ FoxP3+, CD25− ([1]; 100 nM, n=5): 0.34% | CD45+ CD3+ CD4+ FoxP3− CD25+ ([1]; 100 nM, n=5): 1.22% | CD45± ([1]; 100 nM, n=5): 99.6% | Live ([1]; 100 nM, n=5): 91.4% | CD45+ CD3+ ([1]; 500 nM, n=5): 94% | CD45+ CD3+ CD4+ ([1]; 500 nM, n=5): 80.6% | CD45+ CD3+ CD4+ CD25+ ([1]; 500 nM, n=5): 3.03% | CD45+ CD3+ CD4+ FoxP3+ ([1]; 500 nM, n=5): 2.36% | CD45+ CD3+ CD4+ FoxP3+, CD25+ ([1]; 500 nM, n=5): 0.22% | CD45+ CD3+ CD4+ FoxP3+, CD25− ([1]; 500 nM, n=5): 0.47% | CD45+ CD3+ CD4+ FoxP3− CD25+ ([1]; 500 nM, n=5): 1.69% | CD45± ([1]; 500 nM, n=5): 99.5% | Live ([1]; 500 nM, n=5): 87.2% | CD45+ CD3+ ([1]; 1 uM, n=5): 94.7% | CD45+ CD3+ CD4+ ([1]; 1 uM, n=5): 82.2% | CD45+ CD3+ CD4+ CD25+ ([1]; 1 uM, n=5): 3.57% | CD45+ CD3+ CD4+ FoxP3+ ([1]; 1 uM, n=5): 3.85% | CD45+ CD3+ CD4+ FoxP3+, CD25+ ([1]; 1 uM, n=5): 0.14% | CD45+ CD3+ CD4+ FoxP3+, CD25− ([1]; 1 uM, n=5): 0.8% | CD45+ CD3+ CD4+ FoxP3− CD25+ ([1]; 1 uM, n=5): 1.96% | CD45± ([1]; 1 uM, n=5): 99.6% | Live [1, 4]: 84.7% | reduction in FoxP3, CD25+ T cells ([1]; compared to entinostat at 1 μM): ~47 fold | concentration at which the suppressive effect on FoxP3+, CD25+ T cells was seen ([1]; seen at least as low as): ≤ 100 nM | effect on CD4+, CD25+, and FoxP3+ regulatory cells ([1]; striking when compared to entinostat): specifically reduces

CCCC(=O)O [butyrate]
cellular proliferation [2]: induces a block in cellular proliferation | cell cycle [3]: block the cell cycle in the G1 phase
